Like-named read-outs stand apart in the source and are kept apart here.
What was measured:
[1] = biological target: T1, 17β-HSD3 (Homo sapiens, UniProt P37058); assay: 17β-HSD3 scintillation proximity assay (SPA); type: biochemical; set-up: made in house; CHAPS-solubilised 100,000 x g supernatant
T1 sequence (P37058 1-310): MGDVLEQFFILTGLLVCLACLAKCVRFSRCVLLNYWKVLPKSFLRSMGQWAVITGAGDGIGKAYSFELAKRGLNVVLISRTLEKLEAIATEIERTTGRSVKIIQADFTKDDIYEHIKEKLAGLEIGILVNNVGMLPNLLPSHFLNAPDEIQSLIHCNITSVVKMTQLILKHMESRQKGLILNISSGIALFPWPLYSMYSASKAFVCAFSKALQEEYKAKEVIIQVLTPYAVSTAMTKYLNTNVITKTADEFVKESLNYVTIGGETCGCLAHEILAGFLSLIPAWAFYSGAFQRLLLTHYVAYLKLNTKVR
Experimental: (§1) HEK293/17β-HSD3 cells were harvested by scraping or treatment with Cell Dissociation Buffer (Invitrogen) and collected in ice cold Phosphate Buffered Saline (PBS) containing a protease inhibitor cocktail (Complete Tabs, Roche Diagnostics). The cells were then pelleted by centrifugation at 1000 rpm and washed once more in the same buffer. The cells were then resuspended in 2× the cell pellet volume with ice cold lysis buffer (40 mM Tris-HCl pH7.5, 2 mM DTT, 1 mM EDTA, 10% Glycerol (v/v), 0.5% CHAPS (w/v), 1M 1-(3-sulfopropyl)pyridinium hydroxide, Complete Tab(s)) and dounce homogenized on ice. The crude lysate was then incubated on ice for 60 minutes to allow for membrane protein solubilization, followed by centrifugation at 100,000×g for 60 minutes at 4° C. The supernatant was then removed and dialyzed overnight at 4° C. against the enzyme storage buffer (40 mM Tris-HCl pH 7.5, 40 mM KCl, 2 mM DTT, 1 mM EDTA, 20% Glycerol (v/v), Complete Tab(s)). Protein concentration was determined by the Bradford assay, the enzyme was aliquotted, and stored at −80° C. Activity was assessed using the SPA described below.
SPA beads conjugated to anti-mouse IgG were incubated overnight in SPA Bead Buffer (50 mM Tris pH 8.0, 10% Glycerol (v/v)), with anti-Testosterone monoclonal antibody (2 μg antibody per 1 mg of SPA beads) under gentle rotation. The antibody saturated bead complex was then spun down at 500 rpm for 10 minutes at 4° C. and the beads were resuspended in SPA Bead Buffer at a final concentration of 0.5 mg/160 μL. The anti-T/SPA Beads were then stored at 4° C. until needed. Enzymatic assays were conducted in 30 μL total reaction volumes in 96-well white Optiplates (Perkin Elmer). The reaction buffer consisted of 50 mM MES pH 6.0, 2 mM DTT, 0.1% CHAPS, 3 mM NADPH, 10% Glycerol (v/v), 850 nM 4-Androstene-3,17-Dione, and 50 nM [3H]4-Androstene-3,17-Dione (Specific Activity 70–110Ci/mmol). Compounds were diluted such that the final concentration of ethanol and DMSO would not exceed 3% (v/v) and 1% (v/v) respectively, corresponding to concentrations that had little or no effect on enzymatic activity (data not shown). Previously prepared and frozen 17β-HSD3 enzyme was diluted into ice cold buffer containing 50 mM Mes, 40 mM KCl, 2 mM DTT, 1 mM EDTA, and 10% glycerol (v/v) and added last to the reaction mixture. The reaction was allowed to proceed for 60 minutes at room temperature and was stopped by the addition of 10 μL of 0.1N HCl. After the reactions were stopped, an excess of the anti-T/SPA Beads (0.5 mg) were added to each well to a final volume of 200 μL. The plates were sealed and shaken at ˜200 rpm on an orbital shaker at room temp for at least 90 minutes or overnight at 4° C. After allowing the beads to settle, the amount of [3H]Testosterone produced in each well was determined by scintillation counting on a Perkin Elmer TopCount instrument and collected as DPMs. The data was then analyzed and percent inhibition and/or IC50 values, based on 10 point serially diluted curves in duplicate or triplicate, were calculated using Microsoft Excel and XLFit programs. […] Input samples and unbound supernatants, from the enzymatic reactions, were quantitated by scintillation counting to aid in the calculation of bound versus free testosterone produced. Km values were calculated using the Lineweaver-Burke formula and plots where 1/v=(Km+[s])/(Vmax [s]). […]

[2] = biological target: T1, 17β-HSD3; assay: 17β-HSD3 SEAP assay (PSA reporter) in MDA MB 453/17β-HSD3 cells; type: cell-based; set-up: expressed in transfected cells
Experimental: Cultured MDA MB 453/17β-HSD3 cells were trypsinized, spun at 1000 rpm for 10 minutes, and resuspended in DMEM/10% cFBS supplemented with 5 mM BES at a concentration of 4×10^7 cells per mL. The cells (aliquots of 1×10^7 cells) were then transiently transfected with 3 μg of the PSA-SEAP construct by electroporation at 0.22 kVolts and 960 μFD with a time constant of […]. After a short recovery period, the cells were spun down and resuspended in DMEM/10% cFBS and plated into 96-well tissue culture plates (5×10^5 cells per well in 50 μL). After overnight adherence, the compounds were diluted in DMEM/10% and cFBS was added to the cells. 24 hours later, the medium was removed, fresh media containing the compounds was added in the presence of 10 nM Androstenedione, and this mixture was allowed to incubate for 24 hours. 25 μL of the culture supernatant was then removed and plated into 96-well black Optiplates (Perkin Elmer) for SEAP measurement as described by the reagent manufacturer (Tropix). Briefly, the supernatant was heat inactivated at 65° C. for 30 minutes and then allowed to cool to room temperature. Assay buffer (25 μL, Tropix) was then added and allowed to mix for 5 minutes followed by the addition of the Reaction buffer (25 μL, Tropix) and the plates were then incubated for 20 minutes in the dark. Plates were then read using a Packard Instruments TopCount with luminescent detection and signal was captured for 10 seconds per well and photon emission (cps) was averaged. A standard MTS assay (Promega) as described by the manufacturer, was performed in parallel to normalize the data based on cell numbers. Data analysis including percent inhibition and IC50 determination, based on 10 point serially diluted curves in duplicate, was then performed using Microsoft Excel and XLFit.
The analysis of 17β-HSD3 steroid conversion by TLC is hampered by the limitation to examine large numbers of compounds. […] To test this system, a prostate specific antigen (PSA) reporter plasmid was transfected into MDA-MB453 cells stably expressing 17β-HSD3 and stimulated with different concentrations of androstenedione (FIG. 5B).
To evaluate the suitability of this cellular assay for monitoring 17β-HSD3 cell based activity, the inhibitory effects of 18β-glycyrrhetinic acid and […] were examined.

[3] = biological target: T1, 17β-HSD3; set-up: made in house; CHAPS-solubilised 100,000 x g supernatant; settings: read-out: Km for androstenedione, previously published value; human 17β-HSD3 prepared from testes microsomal fractionation; cited from earlier work
[4] = substrate: C[C@]12CCC(=O)C=C1CC[C@@H]1[C@@H]2CC[C@]2(C)C(=O)CC[C@@H]12; assay: 17β-HSD3 scintillation proximity assay (SPA); type: biochemical, human; settings: other: 17β-HSD3 from HEK293 transfectants; 0.01 to 10 μM input androstenedione; 3 mM NADPH
Experimental: as §1, with “The crude lysate was then incubated on ice for 60 minutes to allow for membrane protein solubilization, followed by centrifugation at 100,000×g for 60 minutes at 4° C. The supernatant was then removed and dialyzed overnight at 4° C. against the enzyme storage buffer (40 mM Tris-HCl pH 7.5, 40 mM KCl, 2 mM DTT, 1 mM EDTA, 20% Glycerol (v/v), Complete Tab(s)).” left out
SPA beads conjugated to anti-mouse IgG were incubated overnight in SPA Bead Buffer (50 mM Tris pH 8.0, 10% Glycerol (v/v)), with anti-Testosterone monoclonal antibody (2 μg antibody per 1 mg of SPA beads) under gentle rotation. […] After allowing the beads to settle, the amount of [3H]Testosterone produced in each well was determined by scintillation counting on a Perkin Elmer TopCount instrument and collected as DPMs. The data was then analyzed and percent inhibition and/or IC50 values, based on 10 point serially diluted curves in duplicate or triplicate, were calculated using Microsoft Excel and XLFit programs. […]

Molecule `NC(=O)C1=CN([C@@H]2O[C@H](COP(=O)(O)OP(=O)(O)OC[C@H]3O[C@@H](n4cnc5c(N)ncnc54)[C@H](OP(=O)(O)O)[C@@H]3O)[C@@H](O)[C@H]2O)C=CC1` [NADPH] has a Km ([1]; Lineweaver-Burke plots, read-out: Km for NADPH) of 30 µM.

With `C[C@]12CCC(=O)C=C1CC[C@@H]1[C@@H]2CC[C@]2(C)C(=O)CC[C@@H]12` [androstenedione] the “induction of PSA reporter” value [2] was 9 fold, the “activation of PSA reporter” value ([2]; 12 nM androstenedione, 17β-HSD3-MDA-MB453 transfectants) was 9 fold and the “induction of PSA reporter” value ([2]; 1 μM androstenedione, 17β-HSD3-MDA-MB453 cells) was 25 fold. For the same molecule, the Km [3] was 720 nM.

In the case of `CC(C)(O)C(=O)Nc1ccc([N+](=O)[O-])c(C(F)(F)F)c1` [hydroxyflutamide], the “17β-HSD3 inhibitory activity in the SPA” value ([1]; FIG. 3B) is reported as “did not display 17β-HSD3 inhibitory activity”.

B1: human 17β-HSD3 (Homo sapiens) (protein)
chain: T1 sequence (P37058 1-310)
notes: made in house; CHAPS-solubilised 100,000 x g supernatant
B1 showed a Km [4] of 0.92 µM.

From patent US7138246B2, “Methods for identifying or screening for agents that modulate 17β-HSD3” (Bristol-Myers Squibb Company, priority 2004, dated 2006)
